# Where “and” joins values, the source holds several entries; their conditions need not be identical. Identical values can stand only once.
# Columns and labels:
# Bacillus subtilis [1] = test: Antibacterial activity against Bacillus subtilis assessed as zone of inhibition at 100 ug/ml; assay type: functional; conditions: read-out: IZ
# Escherichia coli [2] = test: Antibacterial activity against Escherichia coli assessed as inhibition of bacterial growth incubated for 18 hrs by CLSI protocol based method; assay type: functional
# Pseudomonas aeruginosa [3] = test: Antibacterial activity against Pseudomonas aeruginosa assessed as inhibition of bacterial growth incubated for 18 hrs by CLSI protocol based method; assay type: functional
# Staphylococcus aureus [4] = test: Antibacterial activity against Staphylococcus aureus NCIM 5257 assessed as inhibition of bacterial growth incubated for 24 hrs by serial broth dilution method; assay type: functional
# Bacillus subtilis [5] = test: Antibacterial activity against Bacillus subtilis NCIM 2097 assessed as inhibition of bacterial growth incubated for 24 hrs by serial broth dilution method; assay type: functional
# Enterococcus faecalis = test: Antibacterial activity against Streptococcus faecalis NCIM 2080 assessed as inhibition of bacterial growth incubated for 24 hrs by serial dilution method; assay type: functional
# Escherichia coli [6] = test: Antibacterial activity against Escherichia coli NCIM 2065 assessed as inhibition of bacterial growth incubated for 24 hrs by serial dilution method; assay type: functional
# Klebsiella pneumoniae = test: Antibacterial activity against Klebsiella pneumoniae NCIM 5289 assessed as inhibition of bacterial growth incubated for 24 hrs by serial dilution method; assay type: functional
# Pseudomonas aeruginosa [7] = test: Antibacterial activity against Pseudomonas aeruginosa NCIM 5210 assessed as inhibition of bacterial growth incubated for 24 hrs by serial dilution method; assay type: functional
# Candida albicans [8] = test: Antifungal activity against Candida albicans NCIM 3628 assessed as inhibition of fungal growth incubated for 48 hrs by serial dilution method; assay type: functional
# Aspergillus niger = test: Antifungal activity against Aspergillus niger NCIM 1317 assessed as inhibition of fungal growth incubated for 48 hrs by serial dilution method; assay type: functional
# Bacillus subtilis [9] = test: Antibacterial activity against Bacillus subtilis assessed as inhibition of bacterial growth measured per 100 uL incubated for 24 hrs by agar well diffusion method; assay type: functional
# Staphylococcus aureus [10] = test: Antibacterial activity against Staphylococcus aureus assessed as inhibition of bacterial growth measured per 100 uL incubated for 24 hrs by agar well diffusion method; assay type: functional
# Escherichia coli [11] = test: Antibacterial activity against Escherichia coli assessed as inhibition of bacterial growth measured per 100 uL incubated for 24 hrs by agar well diffusion method; assay type: functional
# Pseudomonas aeruginosa [12] = test: Antibacterial activity against Pseudomonas aeruginosa assessed as inhibition of bacterial growth measured per 100 uL incubated for 24 hrs by agar well diffusion method; assay type: functional
# Candida albicans [13] = test: Antifungal activity against Candida albicans assessed as inhibition of fungal growth incubated measured per 100 uL incubated for 24 hrs by agar well diffusion method; assay type: functional
# Saccharomyces cerevisiae = test: Antifungal activity against Saccharomyces cerevisiae assessed as inhibition of fungal growth incubated measured per 100 uL incubated for 24 hrs by agar well diffusion method; assay type: functional
# Staphylococcus aureus [14] = test: Antibacterial activity against methicillin-resistant Staphylococcus aureus WIS 441 infected in Galleria mellonella larvae incubated for 6 days; assay type: functional; conditions: time 6 day
# Streptococcus sp. [15] = test: Antibacterial activity against wild-type beta-hemolytic Streptococcus sp. by broth dilution assay; assay type: functional
# Streptococcus sp. [16] = test: Antibacterial activity against wild-type Streptococcus sp. by broth dilution assay; assay type: functional
# Streptococcus sp. [17] = test: Antibacterial activity against linezolid-resistant Streptococcus sp. by broth dilution assay; assay type: functional
# Staphylococcus aureus [18] = test: Antibacterial activity against Staphylococcus aureus assessed as fold increase relative to linezolid; assay type: functional
# Enterococcus = test: Antibacterial activity against Enterococcus assessed as fold increase relative to linezolid; assay type: functional
# Escherichia coli [19] = test: Antimicrobial activity against Escherichia coli assessed as inhibition zone at 200 ug/ml incubated for 24 hrs by disk diffusion method; assay type: functional; conditions: read-out: IZ
# Bacillus subtilis [20] = test: Antimicrobial activity against Bacillus subtilis assessed as inhibition zone at 200 ug/ml incubated for 24 hrs by disk diffusion method; assay type: functional; conditions: read-out: IZ
# Fusarium oxysporum = test: Antimicrobial activity against Fusarium oxysporum assessed as inhibition zone at 200 ug/ml incubated for 24 hrs by disk diffusion method; assay type: functional; conditions: read-out: IZ
# MCF7 = test: Cytotoxicity against human MCF7 cells assessed as reduction in cell viability by tryphan blue exclusion dye method; assay type: functional, cell-based
# HT-29 = test: Cytotoxicity against human HT-29 cells assessed as reduction in cell viability by tryphan blue exclusion dye method; assay type: functional, cell-based
Structure (SMILES),MIC (Escherichia coli [2]),MIC (Pseudomonas aeruginosa [3]),MIC (Bacillus subtilis [9]),MIC (Staphylococcus aureus [10]),MIC (Escherichia coli [11]),MIC (Pseudomonas aeruginosa [12]),MIC (Candida albicans [13]),further results
CCCN1C(=O)C(N2C(=O)OCC2Cc2ccc(/N=C/c3ccccc3)cc2)C1c1ccc(OC)cc1OC (stereo not drawn),–,–,–,–,–,–,–,zone of inhibition at 100 µg/mL (Bacillus subtilis [1]): 23 mm
CNS(=O)(=O)c1ccc(C#CC#Cc2ccc(N3C[C@@H](C(=O)NO)OC3=O)cc2)cc1,0.078 µg/mL,> 10 µg/mL,–,–,–,–,–,–
O=C(/C=C/c1cccc(F)c1)c1ccc(-c2ccc(N3C[C@H](CO)OC3=O)cc2)cc1,–,–,–,–,–,–,–,MIC (Staphylococcus aureus [4]): 3.12 µg/mL; MIC (Bacillus subtilis [5]): 3.12 µg/mL; MIC (Enterococcus faecalis): 3.12 µg/mL; MIC (Escherichia coli [6]): 3.12 µg/mL; MIC (Klebsiella pneumoniae): 3.12 µg/mL; MIC (Pseudomonas aeruginosa [7]): 3.12 µg/mL; MIC (Candida albicans [8]): 12.5 µg/mL; MIC (Aspergillus niger): 12.5 µg/mL
O=C(NO)[C@@H]1CN(c2ccc(C#CC#CC3CC3)cc2)C(=O)O1,0.03 µg/mL,> 10 µg/mL,–,–,–,–,–,–
O=C(NO)[C@@H]1CN(c2ccc(C#CC#CC3CCCC3)cc2)C(=O)O1,0.015 µg/mL,> 10 µg/mL,–,–,–,–,–,–
Cn1nnc(-c2ccc(-c3ccc(N4C[C@H](CO)OC4=O)cc3F)cn2)n1 [TEDIZOLID],–,–,–,–,–,–,–,MED (Staphylococcus aureus [14]): 2 mg/L; MIC90 (Streptococcus sp. [15]): 0.25 µg/mL; MIC90 (Streptococcus sp. [16]): 0.25 µg/mL; MIC90 (Streptococcus sp. [17]): 8 µg/mL; fold change (FC) (Staphylococcus aureus [18]): 4; fold change (FC) (Enterococcus): 4
O=C1NC2(CO1)O/C(=C\c1ccc([N+](=O)[O-])cc1)C(=O)N2CCCNc1ccnc2cc(Cl)ccc12 (stereo not drawn),–,–,–,–,–,–,–,zone of inhibition at 200 µg/mL (Escherichia coli [19]): 14 mm; zone of inhibition at 200 µg/mL (Bacillus subtilis [20]): 14 mm; zone of inhibition at 200 µg/mL (Fusarium oxysporum): 14 mm
O=C1NC2(CO1)O/C(=C\c1ccc(Cl)cc1)C(=O)N2CCCNc1ccnc2cc(Cl)ccc12 (stereo not drawn),–,–,–,–,–,–,–,zone of inhibition at 200 µg/mL (Escherichia coli [19]): 13 mm; zone of inhibition at 200 µg/mL (Bacillus subtilis [20]): 14 mm; zone of inhibition at 200 µg/mL (Fusarium oxysporum): 10 mm; IC50 (MCF7): 16.1 µg/mL; IC50 (HT-29): 32.4 µg/mL

# Further lines, with some results ahead:
MIC (Escherichia coli [2]),MIC (Pseudomonas aeruginosa [3]),MIC (Bacillus subtilis [9]),MIC (Staphylococcus aureus [10]),MIC (Escherichia coli [11]),MIC (Pseudomonas aeruginosa [12]),MIC (Candida albicans [13]),Structure (SMILES),further results
–,–,25 µg,6.25 µg,12.5 µg,6.25 µg,12.5 µg,O=C1NC(Cc2ccc(Nc3nc(-c4c(O)oc(O)cc4=O)cs3)cc2)CO1 (stereo not drawn),MIC (Saccharomyces cerevisiae; 24 h): 12.5 µg and 6.25 µg
50 µg/mL,> 10 µg/mL,–,–,–,–,–,CS(=O)(=O)CCOc1ccc(C#Cc2ccc(N3C[C@@H](C(=O)NO)OC3=O)cc2)cc1,–
–,–,6.25 µg,6.25 µg,12.5 µg,12.5 µg,12.5 µg,O=C1NC(Cc2ccc(Nc3nc(-c4ccc(Br)cc4)cs3)cc2)CO1 (stereo not drawn),MIC (Saccharomyces cerevisiae): 12.5 µg
–,–,12.5 µg,12.5 µg,12.5 µg,12.5 µg,12.5 µg,O=C1NC(Cc2ccc(Nc3nc(-c4ccccc4F)cs3)cc2)CO1 (stereo not drawn),MIC (Saccharomyces cerevisiae): 12.5 µg
–,–,6.25 µg,6.25 µg,12.5 µg,12.5 µg,12.5 µg,O=C1NC(Cc2ccc(Nc3nc(-c4ccc([N+](=O)[O-])cc4)cs3)cc2)CO1 (stereo not drawn),MIC (Saccharomyces cerevisiae): 12.5 µg
–,–,12.5 µg,12.5 µg,12.5 µg,12.5 µg,12.5 µg,O=C1NC(Cc2ccc(Nc3nc(-c4cccc(Cl)c4)cs3)cc2)CO1 (stereo not drawn),MIC (Saccharomyces cerevisiae): 12.5 µg
50 µg/mL,> 10 µg/mL,–,–,–,–,–,O=C(NO)[C@@H]1CN(c2ccc(-c3ccccc3)cc2)C(=O)O1,–

# Source: ChEMBL document CHEMBL5233274, “Current Landscape and Future Perspective of Oxazolidinone Scaffolds Containing Antibacterial Drugs” (J Med Chem, 2021)
